Experimental data as given in patent US20230391786A1, “cGAS INHIBITORS” (Eli Lilly and Company, priority 2022, published 2023).

target: recombinant human cGAS (Homo sapiens (Human), UniProt Q8N884); assay: In vitro inhibition assay of cGAS activity (cGAMP production, RapidFire mass spectrometry); type: biochemical; details: 10 nM recombinant human cGAS, 60 nM 75-bp dsDNA, ATP, GTP, room temperature 3 hours, read-out: IC50 (μM), In vitro inhibition assay for Compounds 1-94
Protocol: Expression and Purification of Recombinant cGAS Protein: Insert cDNA encoding full-length of human cGAS into a modified bacterial expression vector containing an in-frame His6-tag. Induce the E. coli strain BL21(DE3) harboring the plasmid with 1 mM IPTG (Isopropyl β-D-1-thiogalactopyranoside) at 18° C. overnight. Purify the His6-tagged cGAS protein over HISpur Ni-NTA resin in the presence of benzonase and RNase followed by Superdex 200 size exclusion chromatography with storage buffer (50 mM Tris-HCl pH 7.5, 300 mM NaCl, 1 mM DTT, 10% glycerol).
In vitro inhibition assay of cGAS activity: Add a 5 μL mixture containing 10 mM Tris-Cl pH 7.5, 50 mM NaCl, 5 mM MgCl2, 1 mM DTT, 0.01% Triton X-100, 60 nM 75-bp dsDNA, […], 50 μM GTP, 10 nM of recombinant human cGAS, and serial dilutions of a test compound in DMSO to a 384-well plate and incubate at room temperature for 3 hours. Quench the reaction by the addition of 100 μL of stop solution containing 0.1% formic acid and 0.1 μM internal standard (3′3′-difluoro cGAMP). Measure the amount of cGAMP produced by RapidFire 365 mass spectrometry and evaluate inhibitory effect of a compound by plotting percent specific inhibition of cGAMP production against log concentration of the test compound. Calculate IC50 values using a 4-parameter non-linear logistic equation (y=(S0+((SInf−S0)/(1+((qAC50/x)^nHill))))).

Sequence of recombinant human cGAS (Q8N884 whole entry): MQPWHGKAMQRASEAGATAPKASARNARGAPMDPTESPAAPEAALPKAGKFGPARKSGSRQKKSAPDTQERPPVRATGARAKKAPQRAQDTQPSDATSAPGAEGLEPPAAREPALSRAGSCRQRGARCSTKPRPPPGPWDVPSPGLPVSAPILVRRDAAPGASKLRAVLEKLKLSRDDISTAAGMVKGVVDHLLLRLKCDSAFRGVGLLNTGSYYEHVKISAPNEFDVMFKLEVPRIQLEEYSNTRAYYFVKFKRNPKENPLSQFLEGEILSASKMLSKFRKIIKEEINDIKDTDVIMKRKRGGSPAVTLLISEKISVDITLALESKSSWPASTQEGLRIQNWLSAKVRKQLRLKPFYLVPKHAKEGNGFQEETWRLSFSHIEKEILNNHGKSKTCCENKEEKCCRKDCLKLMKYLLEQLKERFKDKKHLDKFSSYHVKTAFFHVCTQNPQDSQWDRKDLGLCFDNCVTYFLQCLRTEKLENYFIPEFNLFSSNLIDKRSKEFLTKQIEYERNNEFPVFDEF

| Structure (SMILES) | IC50 [µM] |
| --- | --- |
| CN1CCn2c(c(-c3cn[nH]c3)c3c(OCC#N)cc(Cl)c(Cl)c32)C1=O [Example 85, 2-((6,7-Dichloro-2-methyl-1-oxo-10-(1H-pyrazol-4-yl)-1,2,3,4-tetrahydropyrazino[1,2-a]indol-9-yl)oxy)acetonitrile] | 0.0257 |
| Nc1nnc(-c2[nH]c3c(Cl)c(Cl)ccc3c2-c2cn[nH]c2)o1 [Example 94, 5-[6,7-Dichloro-3-(1H-pyrazol-4-yl)-1H-indol-2-yl]-1,3,4-oxadiazol-2-amine] | 0.0224 |
| CCOc1cc(Cl)c(Cl)c2c1c(-c1cn[nH]c1)c1n2CCN(C(=O)CO)C1 [Example 91, 1-[6,7-Dichloro-9-ethoxy-10-(1H-pyrazol-4-yl)-3,4-dihydro-1H-pyrazino[1,2-a]indol-2-yl]-2-hydroxy-ethanone] | 0.0405 |
| Clc1ccc2c(-c3cn[nH]c3)c(CNc3nncs3)[nH]c2c1Cl [Example 10, N-[[6,7-Dichloro-3-(1H-pyrazol-4-yl)-1H-indol-2-yl]methyl]-1,3,4-thiadiazol-2-amine] | 0.0629 |
| N#CCOc1cc(Cl)c(F)c2[nH]cc(-c3cn[nH]c3)c12 [Example 70, 2-[[6-Chloro-7-fluoro-3-(1H-pyrazol-4-yl)-1H-indol-4-yl]oxy] acetonitrile] | 0.0173 |
| Clc1ccc2c(-c3cn[nH]c3)c3n(c2c1Cl)CCC(c1nn[nH]n1)C3 (centres unmarked) [Example 69, 3,4-Dichloro-10-(1H-pyrazol-4-yl)-8-(1H-tetrazol-5-yl)-6,7,8,9-tetrahydropyrido[1,2-a]indole] | 0.0449 |
| CS(=O)(=O)N1CCn2c(c(-c3cn[nH]c3)c3ccc(Cl)c(Cl)c32)C1 [Example 41, 6,7-dichloro-2-methylsulfonyl-10-(1H-pyrazol-4-yl)-3,4-dihydro-1H-pyrazino[1,2-a]indole] | 0.0328 |
| CCOc1cc(Cl)c(Cl)c2c1c(-c1cn[nH]c1)c1n2CCNC1 [Example 90, 6,7-Dichloro-9-ethoxy-10-(1H-pyrazol-4-yl)-1,2,3,4-tetrahydropyrazino[1,2-a]indole] | 0.0587 |
| N#CCOc1cc(Cl)c(Cl)c2[nH]cc(-n3ccnc3)c12 [Example 61, 2-[(6,7-Dichloro-3-imidazol-1-yl-1H-indol-4-yl)oxy]acetonitrile] | 0.0326 |
| NC(=O)COc1cc(Cl)c(F)c2[nH]cc(-c3cn[nH]c3)c12 [Example 71, 2-[[6-Chloro-7-fluoro-3-(1H-pyrazol-4-yl)-1H-indol-4-yl]oxy] acetamide] | 0.0463 |
| CS(=O)(=O)NC1CCc2c(-c3cn[nH]c3)c3ccc(Cl)c(Cl)c3n2C1 (single isomer, unassigned) [Example 22, N-[3,4-Dichloro-10-(1H-pyrazol-4-yl)-6,7,8,9-tetrahydropyrido[1,2-a]indol-7-yl]methanesulfonamide] | 0.0225 |
| Cc1[nH]c2c(Cl)c(Cl)ccc2c1-n1ccnc1 [Example 4, 6,7-Dichloro-3-imidazol-1-yl-2-methyl-1H-indole] | 0.0641 |
| CC(=O)Nc1cc(Cl)c(Cl)c2[nH]cc(-c3cn[nH]c3)c12 [Example 66, N-[6,7-Dichloro-3-(1H-pyrazol-4-yl)-1H-indol-4-yl]acetamide] | 0.0349 |
| N#CCOc1cc(Cl)c(Cl)c2c1c(-c1cn[nH]c1)c1n2CCN(C(=O)CO)C1 [Example 89, 2-((6,7-Dichloro-2-(2-hydroxyacetyl)-10-(1H-pyrazol-4-yl)-1,2,3,4-tetrahydropyrazino[1,2-a]indol-9-yl)oxy)acetonitrile] | 0.0112 |
| N#CCNc1cc(Cl)c(Cl)c2[nH]cc(-c3cn[nH]c3)c12 [Example 63, 2-[[6,7-Dichloro-3-(1H-pyrazol-4-yl)-1H-indol-4-yl]amino] acetonitrile] | 0.0273 |

Second part, the compound after the results:

| IC50 [µM] | Structure (SMILES) |
| --- | --- |
| 0.0246 | CC(=O)NCc1[nH]c2c(Cl)c(Cl)ccc2c1-c1cn[nH]c1 [Example 5, N-[[6,7-Dichloro-3-(1H-pyrazol-4-yl)-1H-indol-2-yl]methyl]acetamide] |
| 0.0863 | Clc1ccc2c(-c3cn[nH]c3)c[nH]c2c1Cl [Example 1, 6,7-Dichloro-3-(1H-pyrazol-4-yl)-1H-indole] |
| 0.0462 | O=C1NCCn2c1c(-c1cn[nH]c1)c1ccc(Cl)c(Cl)c12 [Example 31, 6,7-Dichloro-10-(1H-pyrazol-4-yl)-3,4-dihydro-2H-pyrazino[1,2-a]indol-1-one] |
| 0.027 | Cn1ncnc1COCC(=O)N1CCn2c(c(-c3cn[nH]c3)c3ccc(Cl)c(Cl)c32)C1 [Example 46, 1-[6,7-dichloro-10-(1H-pyrazol-4-yl)-3,4-dihydro-1H-pyrazino[1,2-a]indol-2-yl]-2-[(2-methyl-1,2,4-triazol-3-yl)methoxy]ethanone] |
| 0.0158 | O=C(CO)Nc1cc(Cl)c(Cl)c2[nH]cc(-c3cn[nH]c3)c12 [Example 65, N-[6,7-Dichloro-3-(1H-pyrazol-4-yl)-1H-indol-4-yl]-2-hydroxy-acetamide] |
| 0.0535 | O=C(O)Cn1cc(-n2cc(-c3cn[nH]c3)c3ccc(Cl)c(Cl)c32)cn1 [Example 36, 2-[4-[6,7-Dichloro-3-(1H-pyrazol-4-yl)indol-1-yl]pyrazol-1-yl]acetic acid] |
| 0.0427 | OC1CCCc2c(-c3cn[nH]c3)c3ccc(Cl)c(Cl)c3n2C1 (centres unmarked) [Example 78, 3,4-Dichloro-11-(1H-pyrazol-4-yl)-7,8,9,10-tetrahydro-6H-azepino[1,2-a]indol-7-ol] |
| 0.045 | CN1Cc2c(-c3cn[nH]c3)c3ccc(Cl)c(Cl)c3n2CC1=O [Example 75, 6,7-Dichloro-2-methyl-10-(1H-pyrazol-4-yl)-1,2-dihydropyrazino[1,2-a]indol-3(4H)-one] |

same assay, conditions: 10 nM recombinant human cGAS, 60 nM 75-bp dsDNA, ATP, GTP, room temperature 3 hours, read-out: IC50 (μM), In vitro inhibition assay for Compounds 95-348

| Structure (SMILES) | IC50 [µM] |
| --- | --- |
| CCNC(=O)COCC(=O)N1CCn2c(c(-c3cn[nH]c3)c3ccc(Cl)c(Cl)c32)C1 [Example 179, 2-[2-[6,7-Dichloro-10-(1H-pyrazol-4-yl)-3,4-dihydro-1H-pyrazino[1,2-a]indol-2-yl]-2-oxo-ethoxy]-N-ethyl-acetamide] | 0.0585 |
| O=C1COCCN1CC(=O)N1CCn2c(c(-c3cn[nH]c3)c3ccc(Cl)c(Cl)c32)C1 [Example 315, 4-(2-(6,7-Dichloro-10-(1H-pyrazol-4-yl)-3,4-dihydropyrazino[1,2-a]indol-2(1H)-yl)-2-oxoethyl)morpholin-3-one] | 0.0503 |
| O=C1CCCN1CC(=O)N1CCn2c(c(-c3cn[nH]c3)c3ccc(Cl)c(Cl)c32)C1 [Example 316, 1-(2-(6,7-Dichloro-10-(1H-pyrazol-4-yl)-3,4-dihydropyrazino[1,2-a]indol-2(1H)-yl)-2-oxoethyl)pyrrolidin-2-one] | 0.0509 |
| CN1C(=O)SC(CC(=O)N2CCn3c(c(-c4cn[nH]c4)c4ccc(Cl)c(Cl)c43)C2)C1=O (centres unmarked) [Example 323, 5-(2-(6,7-Dichloro-10-(1H-pyrazol-4-yl)-3,4-dihydropyrazino[1,2-a]indol-2(1H)-yl)-2-oxoethyl)-3-methylthiazolidine-2,4-dione] | 0.0613 |
| CN1C(=O)CCCC1C(=O)N1CCn2c(c(-c3cn[nH]c3)c3ccc(Cl)c(Cl)c32)C1 (centres unmarked) [Example 331, 6-(6,7-Dichloro-10-(1H-pyrazol-4-yl)-1,2,3,4-tetrahydropyrazino[1,2-a]indole-2-carbonyl)-1-methylpiperidin-2-one] | 0.083 |
| OCC(O)CNc1cc(Cl)c(Cl)c2[nH]cc(-c3cn[nH]c3)c12 (centres unmarked) [Example 175, 3-[[6,7-Dichloro-3-(1H-pyrazol-4-yl)-1H-indol-4-yl]amino]propane-1,2-diol] | 0.0585 |
